Results published in patent publication US5914319A, “Antithrombotic agents” (Eli Lilly and Company, priority 1995, dated 1999).
Structures can show the parent of a compound that is named as a salt.

Legend:
Type in all cases: biochemical
Human plasma [1] = assay: Human plasma anticoagulation, activated partial thromboplastin time (APTT); settings: concentration required to double the APTT, linear extrapolation
Protocol: (§1) Dog plasma and rat plasma is obtained from conscious mixed-breed hounds (either sex, Hazelton-LRE, Kalamazoo, Mich., U.S.A.) or from anesthetized male Sprague-Dawley rats (Harlan Sprague-Dawley, Inc., Indianapolis, Ind., U.S.A.) by venipuncture into 3.8 percent citrate. Fibrinogen is prepared from in-date ACD human blood as the fraction I-2 according to previous procedures and specifications. […] Human fibrinogen is also purchased as 98 percent pure/plasmin free from American Diagnostica, Greenwich, Conn. Coagulation reagents ACTIN, Thromboplastin, and Human plasma are from Baxter Healthcare Corp., Dade Division, Miami, Fla. Bovine thrombin from Parke-Davis ([…], Mich.) is used for coagulation assays in plasma.
(§2) Coagulation assay procedures are as previously described. […] A CoAScreener coagulation instrument (American LABor, Inc.) is used for all coagulation assay measurements. The prothrombin time (PT) is measured by adding 0.05 mL saline and 0.05 mL Thromboplastin-C reagent to 0.05 mL test plasma. The activated partial thromboplastin time (APTT) is measured by incubation of 0.05 mL test plasma with 0.05 mL Actin reagent for 120 seconds followed by 0.05 mL CaCl2 (0.02M). The thrombin time (TT) is measured by adding 0.05 mL saline and 0.05 mL thrombin (10 NIH units/mL) to 0.05 mL test plasma. The compounds of Formula I are added to human or animal plasma over a wide range of concentrations to determine prolongation effects on the APTT, PT, and TT assays. Linear extrapolations are performed to estimate the concentrations required to double the clotting time for each assay.

Human plasma [2] = assay: Human plasma anticoagulation, prothrombin time (PT); settings: concentration required to double the PT, linear extrapolation
Protocol: as §1, §2

Human plasma [3] = assay: Human plasma anticoagulation, thrombin time (TT); settings: concentration required to double the thrombin time, linear extrapolation
Protocol: as §1, §2

Compound	Human Plasma Anticoagulation 2× Clotting time (ng/mL) APTT (Human plasma [1])	Human Plasma Anticoagulation 2× Clotting time (ng/mL) PT (Human plasma [2])	Human Plasma Anticoagulation 2× Clotting time (ng/mL) TT (Human plasma [3])
CCS(=O)(=O)N[C@H](Cc1ccccc1)C(=O)N1CCC[C@H]1C(=O)NCCc1cccc(C(=N)N)c1.Cl [Example 27, EtSO2 -D-Phe-Pro-m-NHCH2 CH2 --C6 H4 C(=NH)NH2.HCl]	27,800 ng/mL	27,000 ng/mL	1,940 ng/mL
N=C(N)c1ccc(CCNC(=O)[C@@H]2CCCN2C(=O)[C@@H]2NCC[C@@H]3CCCC[C@@H]32)cc1 [Example 28, 1-Piq-Pro-p-NHCH2 CH2 --C6 H4 C(=NH)NH2.2HCl]	8,100 ng/mL	8,300 ng/mL	520 ng/mL
N=C(N)c1cccc(CCNC(=O)[C@@H]2CCCN2C(=O)[C@@H]2NCC[C@@H]3CCCC[C@@H]32)c1 [Example 29, 1-Piq-Pro-m-NHCH2 CH2 --C6 H4 C(=NH)NH2.2HCl]	9,800 ng/mL	15,800 ng/mL	750 ng/mL
CCS(=O)(=O)N[C@H](Cc1ccccc1)C(=O)N1CCC[C@H]1C(=O)NCCCc1ccc(C(=N)N)cc1 [Example 30, EtSO2 -D-Phe-Pro-p-NHCH2 CH2 CH2 --C6 H4 C(=NH)NH2.HCl]	14,000 ng/mL	14,400 ng/mL	1,000 ng/mL
CCS(=O)(=O)N[C@H](Cc1ccccc1)C(=O)N1CCC[C@H]1C(=O)NCCCc1cccc(C(=N)N)c1 [Example 31, EtSO2 -D-Phe-Pro-m-NHCH2 CH2 CH2 --C6 H4 C(=NH)NH2.HCl]	34,500 ng/mL	30,000 ng/mL	10,800 ng/mL
Cl.N=C(N)c1ccc(CCCNC(=O)C2CCCN2C(=O)C2NCCC3CCCCC32)cc1 (stereo not drawn) [Example 32, 1-Piq-Pro-p-NHCH2 CH2 CH2 --C6 H4 C(=NH)NH2.HCl]	28,500 ng/mL	47,800 ng/mL	3,100 ng/mL
N=C(N)c1cccc(CCCNC(=O)[C@@H]2CCCN2C(=O)[C@@H]2NCC[C@@H]3CCCC[C@@H]32)c1 [Example 33, 1-Piq-Pro-m-NHCH2 CH2 CH2 --C6 H4 C(=NH)NH2.HCl]	59,300 ng/mL	70,900 ng/mL	18,900 ng/mL
CCS(=O)(=O)N[C@H](Cc1ccccc1)C(=O)N1CCC[C@H]1C(=O)NCc1ccc(NC(=N)N)cc1 [Example 34, EtSO2 -D-Phe-Pro-p-NHCH2 C6 H4 NHC(NH)NH2.HCl]	4,900 ng/mL	5,500 ng/mL	530 ng/mL
CCS(=O)(=O)N[C@H](Cc1ccccc1)C(=O)N1CCC[C@H]1C(=O)NCc1cccc(NC(=N)N)c1 [Example 36, EtSO2 -D-Phe-Pro-m-NHCH2 C6 H4 NHC(NH)NH2.HCl]	> 91,000 ng/mL	> 91,000 ng/mL	7,700 ng/mL
CCS(=O)(=O)N[C@H](Cc1ccccc1)C(=O)N1CCC[C@H]1C(=O)NCCc1cccc(N=C(N)N)c1.Cl [Example 37, EtSO2 -D-Phe-Pro-m-NHCH2 CH2 C6 H4 NHC(NH)NH2.HCl]	> 9,000 ng/mL	> 9,000 ng/mL	> 9,000 ng/mL
N=C(N)Nc1ccc(CNC(=O)[C@@H]2CCCN2C(=O)[C@@H]2NCC[C@@H]3CCCC[C@@H]32)cc1 [Example 38, D-1-Piq-Pro-p-NHCH2 C6 H4 NHC(NH)NH2.2HCl]	6,100 ng/mL	11,100 ng/mL	540 ng/mL
N=C(N)Nc1ccc(CCNC(=O)[C@@H]2CCCN2C(=O)[C@@H]2NCC[C@@H]3CCCC[C@@H]32)cc1 [Example 39, D-1-Piq-Pro-p-NHCH2 CH2 C6 H4 NHC(NH)NH2.2HCl]	69,200 ng/mL	78,600 ng/mL	5,300 ng/mL
N=C(N)Nc1cccc(CNC(=O)[C@@H]2CCCN2C(=O)[C@@H]2NCC[C@@H]3CCCC[C@@H]32)c1 [Example 40, D-1-Piq-Pro-m-NHCH2 C6 H4 NHC(NH)NH2.2HCl]	> 91,000 ng/mL	> 91,000 ng/mL	35,100 ng/mL
N=C(N)Nc1cccc(CCNC(=O)[C@@H]2CCCN2C(=O)[C@@H]2NCC[C@@H]3CCCC[C@@H]32)c1 [Example 41, D-1-Piq-Pro-m-NHCH2 CH2 C6 H4 NHC(NH)NH2.2HCl]	> 91,000 ng/mL	> 91,000 ng/mL	82,200 ng/mL
Cl.N=C(N)c1ccc(CNC(=O)C2CC3CCCCC3N2C(=O)C(CC2CCCCC2)NCC(=O)O)cc1 [Example 49, HOOCCH2 -D-Cha-cis-Ohi-p-NHCH2 C6 H4 C(NH)NH2.HCl]	130 ng/mL	130 ng/mL	5 ng/mL
Cl.Cl.N=C(N)c1ccc(CNC(=O)[C@@H]2CCCN2C(=O)[C@H](N)CC2CCCCC2)cc1 [Example 51, D-Cha-Pro-p-NHCH2 C6 H4 C(NH)NH2.2HCl]	48 ng/mL	110 ng/mL	2 ng/mL
Cl.N=C(N)c1ccc(CNC(=O)[C@@H]2CCCN2C(=O)[C@@H](CC2CCCCC2)NCCC(=O)O)cc1 [Example 52, HOOCCH2 CH2 -D-Cha-Pro-p-NHCH2 C6 H4 C(NH)NH2.HCl]	80 ng/mL	170 ng/mL	6 ng/mL
O=C(O)CN[C@H](CC1CCCCC1)C(=O)N1CCC[C@H]1C(=O)NCC1CCNCC1 [Example 53, HO2 CCH2 -D-Cha-Pro-4-NHCH2 -piperidine.HCl]	33,800 ng/mL	34,500 ng/mL	1,400 ng/mL
Cl.O=C(O)CNC(CC1CCCCC1)C(=O)N1CCCC1C(=O)NCCC1CCNCC1 [Example 54, HO2 CCH2 -D-Cha-Pro-4-NHCH2 CH2 -piperidine.HCl]	3,300 ng/mL	2,200 ng/mL	140 ng/mL
O=C(O)CN[C@H](CC1CCCCC1)C(=O)N1CCC[C@H]1C(=O)NCCCC1CCNCC1 [Example 55, HO2 CCH2 -D-Cha-Pro-4-NHCH2 CH2 CH2 -piperidine.HCl]	> 91,000 ng/mL	> 91,000 ng/mL	55,800 ng/mL
Cl.N=C(N)N1CCC(CNC(=O)[C@@H]2CCCN2C(=O)[C@@H](CC2CCCCC2)NCC(=O)O)CC1 [Example 56, HO2 CCH2 -D-Cha-Pro-4-NHCH2 -1-amidinopiperidine.HCl]	160 ng/mL	200 ng/mL	5 ng/mL
N=C(N)N1CCC(CCNC(=O)[C@@H]2CCCN2C(=O)[C@@H](CC2CCCCC2)NCC(=O)O)CC1 [Example 57, HO2 CCH2 -D-Cha-Pro-4-NHCH2 CH2 -1-amidinopiperidine.HCl]	360 ng/mL	340 ng/mL	14 ng/mL
